Where two headings read alike, the source gives them in different places.
System: MCF-7 (human breast cancer cells)
Assay: SRB cytotoxicity on MCF-7 cells
Type: cell-based
Method: Cells were seeded in 96-well microtiter plates at densities of 1000 cells/well. The optimal seeding density was determined to ensure exponential growth in control wells throughout the experimental period and to obtain a linear relationship between absorbance at 492 nm and cell number when analyzed by the sulforhodamine B (SRB) assay (43). 24 hours after seeding the cells were incubated for 1 hour or continuously for 3 days with the drugs (concentration range 0.01 to 500 μM). The cells were washed once and then incubated in drug free medium for 6 days. At the end of the incubation cell growth was determined by the SRB assay, which quantifies viable cells by measuring their total cellular protein content. […] Similar studies were conducted against the growth of PC3 (human prostate cancer cells) and MCF-7 (human breast cancer cells).

Compound: O=C(Nc1cc(O)ccc1CCCl)c1cc2cc(NC(=O)c3cc4ccccc4o3)ccc2[nH]1 [Compound 1, 4-(2-Chloroethyl)-3-[5-(5-benzofuran-2-carboxamido)indole-2-carboxamido]phenol]
- IC50 (continuous exposure, read-out: IC50 MCF-7 Continuous exposure): 3.43 µM
- IC50 (read-out: IC50 MCF-7 1 hour exposure, 1 hour exposure): > 50 µM
